Test results as given in the CheMixHub viscosity set.

Assay: xn = mol fraction of the nth substance listed

CCCCCCCCCCCC(=O)OC + C1C[C@@H]2[C@H]3CC[C@H](C3)[C@@H]2C1
viscosity [mPa·s], 100 kPa
Settings | x2 = 0.1012 | x2 = 0.2004 | x2 = 0.3001 | x2 = 0.4004 | x2 = 0.5021 | x2 = 0.6003 | x2 = 0.7003 | x2 = 0.8001 | x2 = 0.8991
293.15 K | 3.062 | 3.012 | 2.973 | 2.927 | 2.896 | 2.874 | 2.864 | 2.877 | 2.909
298.15 K | 2.73 | 2.69 | 2.659 | 2.625 | 2.599 | 2.585 | 2.58 | 2.595 | 2.628
303.15 K | 2.454 | 2.419 | 2.397 | 2.369 | 2.349 | 2.339 | 2.338 | 2.356 | 2.388
308.15 K | 2.218 | 2.191 | 2.173 | 2.152 | 2.134 | 2.129 | 2.13 | 2.149 | 2.183
313.15 K | 2.018 | 1.994 | 1.98 | 1.963 | 1.951 | 1.946 | 1.949 | 1.969 | 2.001
318.15 K | 1.844 | 1.824 | 1.813 | 1.799 | 1.789 | 1.787 | 1.791 | 1.811 | 1.841
323.15 K | 1.693 | 1.676 | 1.668 | 1.656 | 1.647 | 1.647 | 1.652 | 1.672 | 1.702

COC(=O)CC(C)=O + CC(C)O
viscosity [mPa·s], 101.3 kPa
Settings | x1 = 0.1028 | x1 = 0.2052 | x1 = 0.3051 | x1 = 0.4085 | x1 = 0.4086 | x1 = 0.5084 | x1 = 0.6057 | x1 = 0.7079 | x1 = 0.8053 | x1 = 0.9038
298.15 K | 1.457 | 1.267 | 1.195 | 1.168 | – | 1.16 | 1.189 | 1.243 | 1.315 | 1.419
303.15 K | 1.279 | 1.124 | 1.068 | 1.051 | – | 1.049 | 1.08 | 1.127 | 1.197 | 1.287
308.15 K | 1.023 | 1.006 | 0.963 | – | 0.952 | 0.956 | 0.985 | 1.032 | 1.094 | 1.133
